Results: ChEMBL document CHEMBL4418499, “Inhibitors of trim33 and methods of use” (2018)

Tests used:
[1] = target: T1, E3 ubiquitin-protein ligase TRIM33 (Homo sapiens, UniProt Q9UPN9); experiment: Inhibition of recombinant TRIM33 PHD bromodomain (unknown origin) using biotinylated H3 peptide (H3K9me3K18ac) by AlphaScreen assay
T1 sequence (Q9UPN9 whole entry): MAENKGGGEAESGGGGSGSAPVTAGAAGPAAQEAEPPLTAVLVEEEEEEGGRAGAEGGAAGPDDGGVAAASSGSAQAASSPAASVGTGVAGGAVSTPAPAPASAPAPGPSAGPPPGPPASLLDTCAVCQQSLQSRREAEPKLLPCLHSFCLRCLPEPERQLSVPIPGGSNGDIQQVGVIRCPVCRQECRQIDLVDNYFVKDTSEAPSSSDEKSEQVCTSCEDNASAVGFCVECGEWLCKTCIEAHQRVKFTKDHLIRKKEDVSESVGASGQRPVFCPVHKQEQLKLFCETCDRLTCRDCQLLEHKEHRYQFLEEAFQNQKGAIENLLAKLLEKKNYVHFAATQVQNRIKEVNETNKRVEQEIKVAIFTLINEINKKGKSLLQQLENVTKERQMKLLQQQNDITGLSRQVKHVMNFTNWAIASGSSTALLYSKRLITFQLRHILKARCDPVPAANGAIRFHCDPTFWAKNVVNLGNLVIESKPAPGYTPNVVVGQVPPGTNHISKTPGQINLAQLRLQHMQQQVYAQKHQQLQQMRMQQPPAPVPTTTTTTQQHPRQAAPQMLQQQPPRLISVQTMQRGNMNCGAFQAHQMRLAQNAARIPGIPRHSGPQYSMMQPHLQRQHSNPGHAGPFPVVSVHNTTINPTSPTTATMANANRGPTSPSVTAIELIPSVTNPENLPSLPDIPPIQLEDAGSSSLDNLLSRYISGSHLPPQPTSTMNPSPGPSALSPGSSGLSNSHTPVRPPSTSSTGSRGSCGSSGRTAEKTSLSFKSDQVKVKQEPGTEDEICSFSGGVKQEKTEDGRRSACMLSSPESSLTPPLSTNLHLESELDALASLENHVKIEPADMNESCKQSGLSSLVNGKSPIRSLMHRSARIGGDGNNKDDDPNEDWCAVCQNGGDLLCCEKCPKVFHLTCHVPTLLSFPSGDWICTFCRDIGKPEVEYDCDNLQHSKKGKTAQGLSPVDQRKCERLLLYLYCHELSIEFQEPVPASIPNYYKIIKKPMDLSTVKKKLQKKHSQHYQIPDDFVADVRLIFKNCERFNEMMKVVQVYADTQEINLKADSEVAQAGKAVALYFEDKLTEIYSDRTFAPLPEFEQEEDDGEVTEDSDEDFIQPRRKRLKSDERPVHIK

[2] = target: T2, Transcription intermediary factor 1-alpha (Homo sapiens, UniProt O15164); experiment: Inhibition of recombinant TRIM24 (unknown origin) using biotinylated H3 peptide (H3K9me3K18ac) by AlphaScreen assay
T2 sequence (O15164 whole entry): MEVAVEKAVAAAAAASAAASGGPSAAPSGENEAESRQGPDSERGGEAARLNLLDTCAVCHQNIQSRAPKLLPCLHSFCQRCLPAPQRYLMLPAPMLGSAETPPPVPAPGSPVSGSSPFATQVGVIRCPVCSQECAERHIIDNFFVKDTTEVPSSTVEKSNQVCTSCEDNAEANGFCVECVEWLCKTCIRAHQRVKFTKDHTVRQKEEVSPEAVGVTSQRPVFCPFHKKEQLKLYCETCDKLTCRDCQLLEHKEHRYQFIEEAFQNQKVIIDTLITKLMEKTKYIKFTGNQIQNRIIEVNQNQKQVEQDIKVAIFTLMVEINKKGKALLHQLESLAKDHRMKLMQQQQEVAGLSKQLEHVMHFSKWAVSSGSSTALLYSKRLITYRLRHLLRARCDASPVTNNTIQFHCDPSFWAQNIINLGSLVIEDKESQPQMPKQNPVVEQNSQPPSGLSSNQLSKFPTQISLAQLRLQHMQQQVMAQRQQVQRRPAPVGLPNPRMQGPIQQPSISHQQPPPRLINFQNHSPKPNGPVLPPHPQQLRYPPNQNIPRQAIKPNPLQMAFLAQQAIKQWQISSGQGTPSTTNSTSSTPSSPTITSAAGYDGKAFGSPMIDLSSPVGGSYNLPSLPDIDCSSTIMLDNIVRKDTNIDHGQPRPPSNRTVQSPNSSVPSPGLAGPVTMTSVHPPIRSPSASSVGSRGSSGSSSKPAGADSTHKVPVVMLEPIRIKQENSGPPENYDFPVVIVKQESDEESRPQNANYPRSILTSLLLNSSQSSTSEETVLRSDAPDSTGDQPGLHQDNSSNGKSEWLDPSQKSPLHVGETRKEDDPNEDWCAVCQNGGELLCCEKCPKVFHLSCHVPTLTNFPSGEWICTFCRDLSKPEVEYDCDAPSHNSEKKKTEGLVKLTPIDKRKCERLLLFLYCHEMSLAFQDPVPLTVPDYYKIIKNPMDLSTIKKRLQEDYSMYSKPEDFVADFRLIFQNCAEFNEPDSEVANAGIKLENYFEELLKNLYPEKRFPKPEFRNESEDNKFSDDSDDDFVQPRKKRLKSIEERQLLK

Homo sapiens = organism: Homo sapiens; experiment: Selectivity index, ratio of IC50 for recombinant TRIM24 (unknown origin) to IC50 for recombinant TRIM33 PHD bromodomain (unknown origin)

Row | Structure (SMILES) | IC50 [1] | IC50 [2] | Ratio IC50 (Homo sapiens)
1 | CCCOc1ccn2c(C(C)=O)cc(-c3nc4cnccn4c3NC3CCCCC3)c2c1 | 80 µM |  | 
2 | Brc1ccc2nc(-c3ccc4nccn4c3)c(NCCN3CCOCC3)n2c1 |  | 1380 µM | 
3 | Cc1[nH]cnc1-c1nc2ccccn2c1NC1CCCCC1 |  |  | 8.45
4 | CCCOc1ccn2c(C(C)=O)cc(-c3nc4cnccn4c3NCCN3CCOCC3)c2c1 | 151 µM | 4980 µM | 32.9
5 | N#Cc1ccc(CNc2c(-c3ccc4nccn4c3)nc3cnccn23)cc1 | 46.1 µM | 818 µM | 17.7
6 | CCCOc1ccn2c(C(C)=O)cc(-c3nc4ccccn4c3NCCOC)c2c1 | 47.5 µM | 445 µM | 9.36
7 | COc1ccc(Nc2c(-c3c[nH]c(C)n3)nc3ccccn23)cc1 | 0.00319 µM | 1.71 µM | 538
8 | Cc1nc(-c2nc3ccc(Br)cn3c2NCc2ccc(C#N)cc2)c[nH]1 | 11.3 µM | 81.7 µM | 7.21
9 | Cc1nc(-c2nc3ccccn3c2NC2CCCCC2)c[nH]1 | 5.9 µM | 96.5 µM | 16.4
10 | COC(=O)c1ccc2nc(-c3nc[nH]c3C)c(NCc3ccc(C#N)cc3)n2c1 | 113 µM | 319 µM | 2.83
11 | CCCOc1ccn2c(C(C)=O)cc(-c3nc4ccccn4c3NC3CCCCC3)c2c1 | 8.72 µM | 142 µM | 16.2
12 | COC(=O)c1ccc2nc(-c3c[nH]c(C)n3)c(NCCc3ccc(OC)c(OC)c3)n2c1 | 7.17 µM | 622 µM | 86.8
13 | COc1cc(C=O)ccc1O [VANILLIN] | 0.326 µM | 0.162 µM | 
14 | O=Cc1cccnc1Br | 5.48 µM | 7.86 µM | 
15 | Cc1nc(-c2nc3ccccn3c2NCCN2CCOCC2)c[nH]1 | 27.8 µM | 242 µM | 8.73
16 | COC(=O)c1ccc2nc(-c3nc[nH]c3C)c(NC3CCCCC3)n2c1 |  | 143 µM | 
17 | CCCOc1ccn2c(C(C)=O)cc(-c3nc4cnccn4c3NCCc3ccc(OC)c(OC)c3)c2c1 | 23.7 µM | 835 µM | 35.3
18 | O=Cc1ccccc1O | 0.299 µM | 0.221 µM | 
19 | COCCNc1c(-c2ccc3nccn3c2)nc2ccc(Br)cn12 | 156 µM | 706 µM | 4.53
20 | COc1ccc(Nc2c(-c3ccc4nccn4c3)nc3ccc(Br)cn23)cc1 | 70.3 µM | 224 µM | 3.19
21 | N#Cc1ccc(CNc2c(-c3ccc4nccn4c3)nc3ccc(Br)cn23)cc1 | 48.1 µM | 296 µM | 6.16

Row | Structure (SMILES) | IC50 [1] | IC50 [2] | Ratio IC50 (Homo sapiens)
22 | COC(=O)c1ccc2nc(-c3ccc4nccn4c3)c(NCc3ccc(C#N)cc3)n2c1 | 125 µM |  | 486
23 | COCCNc1c(-c2c[nH]c(C)n2)nc2ccc(C(=O)OC)cn12 | 10.5 to 56.9 µM | 4.07 µM | 
24 | Brc1ccc2nc(-c3ccc4nccn4c3)c(NC3CCCCC3)n2c1 |  | 100 µM | 
25 | c1cn2c(NC3CCCCC3)c(-c3ccc4nccn4c3)nc2cn1 | 169 µM | 320 µM | 
26 | COc1ccc(C=O)c(O)c1 | 0.301 µM | 0.22 µM | 
27 | COc1ccc(Nc2c(-c3nc[nH]c3C)nc3ccc(Br)cn23)cc1 |  |  | 189
28 | COCCNc1c(-c2nc[nH]c2C)nc2ccc(Br)cn12 |  | 134 µM | 
29 | Cc1[nH]cnc1-c1nc2ccc(Br)cn2c1NCCN1CCOCC1 |  | 117 µM | 
30 | CCCOc1ccn2c(C(C)=O)cc(-c3nc4ccccn4c3NCc3ccc(C#N)cc3)c2c1 | 46.3 µM |  | 
31 | O=C1CCCC1 [CYCLOPENTANONE] | 0.234 µM | 0.136 µM | 
32 | COc1ccc(Nc2c(-c3c[nH]c(C)n3)nc3cnccn23)cc1 | 153 µM | 385 µM | 
33 | Cc1nc(-c2nc3cnccn3c2NC2CCCCC2)c[nH]1 | 415 µM | 186 µM | 
34 | COC(=O)c1ccc2nc(-c3nc[nH]c3C)c(NCCc3ccc(OC)c(OC)c3)n2c1 |  | 377 µM | 
35 | Cc1nc[nH]c1-c1nc2ccccn2c1NC1CCCCC1 | 1.07 µM | 9.03 µM | 
36 | CCCOc1ccn2c(C(C)=O)cc(-c3nc4ccc(C(=O)OC)cn4c3NC3CCCCC3)c2c1 |  | 255 µM | 
37 | COC(=O)c1ccc2nc(-c3c[nH]c(C)n3)c(NCc3ccc(C#N)cc3)n2c1 | 650 µM |  | 
38 | COC(=O)c1ccc2nc(-c3ccc4nccn4c3)c(NCCN3CCOCC3)n2c1 | 303 µM | 700 µM | 
39 | Cc1cccc2c(C=O)c[nH]c12 | 0.24 µM | 0.157 µM | 
40 | c1ccn2c(NCCN3CCOCC3)c(-c3ccc4nccn4c3)nc2c1 | 366 µM |  | 48.4
41 | COCCNc1c(-c2nc[nH]c2C)nc2cnccn12 | 204 µM |  | 115
42 | O=Cc1ccc(N2CCCC2)cc1 | 0.269 µM | 0.133 µM | 

Row | Structure (SMILES) | IC50 [1] | IC50 [2] | Ratio IC50 (Homo sapiens)
43 | CCCOc1ccn2c(C(C)=O)cc(-c3nc4cnccn4c3NCCOC)c2c1 |  | 2850 µM | 
44 | CCCOc1ccn2c(C(C)=O)cc(-c3nc4ccc(C(=O)OC)cn4c3NCc3ccc(C#N)cc3)c2c1 | 65.1 µM |  | 515
45 | COc1ccc(CCNc2c(-c3c[nH]c(C)n3)nc3ccccn23)cc1OC |  | 44.4 µM | 
46 | Cc1[nH]cnc1-c1nc2ccccn2c1NCCN1CCOCC1 |  |  | 13.3
47 | Cn1cccc1C=O | 0.305 µM | 0.18 µM | 
48 | O=C1CCCCCCC1 [CYCLOOCTANONE] | 0.25 µM | 0.166 µM | 
49 | COc1ccc(CCNc2c(-c3ccc4nccn4c3)nc3cnccn23)cc1OC | 29.7 µM |  | 1.9
50 | CCCOc1ccn2c(C(C)=O)cc(-c3nc4ccc(C(=O)OC)cn4c3NCCc3ccc(OC)c(OC)c3)c2c1 |  | 5650 µM | 
51 | Cc1ncc(CO)c(C=O)c1O | 0.283 µM | 0.225 µM | 
52 | COC(=O)c1ccc2nc(-c3ccc4nccn4c3)c(NC3CCCCC3)n2c1 | 42.6 µM | 502 µM | 
53 | COc1ccc(Nc2c(-c3nc[nH]c3C)nc3ccccn23)cc1 |  |  | 5.35
54 | COc1ccc(CCNc2c(-c3ccc4nccn4c3)nc3ccccn23)cc1OC |  | 1510 µM | 
55 | COc1ccc(CCNc2c(-c3c[nH]c(C)n3)nc3ccc(Br)cn23)cc1OC |  | 63.5 µM | 
56 | COCCNc1c(-c2nc[nH]c2C)nc2ccc(C(=O)OC)cn12 |  | 511 µM | 
57 | COc1ccc(Nc2c(-c3[nH]cnc3C)nc3ccc(Br)cn23)cc1 | 0.0137 µM | 2.59 µM | 
58 | COc1ccc(CCNc2c(-c3nc[nH]c3C)nc3ccc(Br)cn23)cc1OC |  | 28.9 µM | 
59 | O=Cc1cccc(-c2ccc(C(=O)O)cc2)c1 | 0.336 µM | 0.165 µM | 
60 | Cc1nc[nH]c1-c1nc2cnccn2c1NC1CCCCC1 |  | 90.1 µM | 
61 | CCCOc1ccn2c(C(C)=O)cc(-c3nc4ccc(C(=O)OC)cn4c3NCCOC)c2c1 |  | 2880 µM | 
62 | COC(=O)c1ccc2nc(-c3nc[nH]c3C)c(NCCN3CCOCC3)n2c1 |  |  | 11.8
